Experimental data taken from PMC3274767 (2012).

Columns and labels:
[1] = molecular target: T1, GABAA receptor β3 subunit (α1β3 GABAAR) (Homo sapiens, UniProt P14867+P28472); assay: [3H]muscimol radioligand filtration binding to purified receptor; settings: cited from earlier work
T1 sequence (P28472 26-473): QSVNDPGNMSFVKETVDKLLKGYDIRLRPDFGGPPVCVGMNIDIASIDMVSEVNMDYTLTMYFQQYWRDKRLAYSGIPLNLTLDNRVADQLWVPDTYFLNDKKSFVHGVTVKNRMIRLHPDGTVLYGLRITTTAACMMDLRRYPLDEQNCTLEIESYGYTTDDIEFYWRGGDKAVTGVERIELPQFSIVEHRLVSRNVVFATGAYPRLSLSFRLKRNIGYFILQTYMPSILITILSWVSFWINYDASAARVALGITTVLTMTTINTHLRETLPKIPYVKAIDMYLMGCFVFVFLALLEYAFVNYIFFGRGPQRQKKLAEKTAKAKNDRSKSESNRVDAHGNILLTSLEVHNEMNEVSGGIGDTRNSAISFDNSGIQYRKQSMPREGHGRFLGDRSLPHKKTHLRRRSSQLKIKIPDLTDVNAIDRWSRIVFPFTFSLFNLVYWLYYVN
T1 sequence (P14867 28-456): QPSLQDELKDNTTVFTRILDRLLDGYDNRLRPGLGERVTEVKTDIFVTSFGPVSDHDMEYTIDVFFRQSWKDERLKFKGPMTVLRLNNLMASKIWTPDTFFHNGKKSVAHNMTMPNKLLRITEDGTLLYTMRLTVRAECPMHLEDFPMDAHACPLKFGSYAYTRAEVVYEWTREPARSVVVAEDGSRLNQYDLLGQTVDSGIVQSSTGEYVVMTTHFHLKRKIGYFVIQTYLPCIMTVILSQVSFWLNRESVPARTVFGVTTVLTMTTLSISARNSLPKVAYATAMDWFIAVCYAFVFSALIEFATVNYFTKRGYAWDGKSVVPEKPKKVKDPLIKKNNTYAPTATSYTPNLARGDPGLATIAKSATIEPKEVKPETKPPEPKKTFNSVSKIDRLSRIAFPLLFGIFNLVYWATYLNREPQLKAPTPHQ

[2] = molecular target: T2, GABAA receptor α1 subunit (α1β3 GABAAR) (Homo sapiens, UniProt P14867+P28472); assay: photoaffinity labeling with residue identification; assay type: binding
T2 sequence (P14867 28-456): T1 sequence (P14867 28-456)
T2 sequence (P28472 26-473): T1 sequence (P28472 26-473)

[3] = molecular target: T1, GABAA receptor β3 subunit (α1β3 GABAAR); assay: photoaffinity labeling with residue identification; assay type: binding

Structure (SMILES) | Kd [1] [nM] | EC50 [2] [nM] | EC50 [3] [nM]
NCc1cc(=O)[nH]o1 [muscimol, 3-hydroxy-5-aminomethylisoxazole] | 10 | – | –
CC(c1ccccc1)n1cncc1C(=O)OCCC1(C)N=N1 (stereo not drawn) [azietomidate, 2-(3-methyl-3H-diaziren-3-yl) ethyl 1-(1-phenylethyl)-1H-imidazole-5-carboxylate] | – | 2700 ± 1000 | 2700 ± 1000
